The text below walks through data of PubChem BioAssay (NCI).

SMILES strings stand for the structures.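 Following 48 hours of exposure in 96-well plates, responses at five concentrations were used to interpolate endpoints linearly. At the GI50, growth is halved. The concentration for full growth arrest is given as TGI.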

What all share (assay): NCI anticancer screen, dose series, 48 h
The test system of test [1] is K-562 leukemia.
Test [2] has as its system HS 578T breast.
Test [3] has as its system SN12C renal.
In test [4] the test system is NCI/ADR-RES ovarian.
Test [5] deals with U251 CNS.
For test [6], the system named is NCI-H460 lung.
Test [7] concerns HCT-116 colon.
Test [8] concerns SF-268 CNS.
Test [9] relates to ACHN renal.
The test system of test [10] is OVCAR-3 ovarian.

With `Cc1csc(-c2ccc3c(c2)COC3(CCCN(C)C)c2ccc(F)cc2)c1` (stereo not drawn), the GI50 is 2.29 µM in test [1]; 1.93 µM in test [2]; 1.79 µM in [3]; 1.81 µM in [4]; 1.85 µM in test [5]; 1.9 µM in test [6]. Further, the GI50 was 1.86 µM in test [7], 1.68 µM in test [8], 1.74 µM in test [9] and 1.81 µM in [10]. Besides, the TGI in [1] worked out at 5.18 µM; in test [2], 4.44 µM; in test [3] it was 3.4 µM; in [4], 3.44 µM; in test [5], 3.76 µM; in [6], 3.5 µM. The TGI is 3.54 µM in test [7], 3.26 µM in test [8], 3.14 µM in test [9] and 3.37 µM in test [10].

In the case of `Nc1nc(Cl)nc2c1ncn2C1CCC(COP(=O)(O)OP(=O)(O)OP(=O)(O)O)O1` (stereo not drawn), the TGI is more than 100 µM in test [2]; more than 100 µM in [3]; 55.8 µM in [4]; more than 100 µM in [5]; more than 100 µM in [6]; more than 100 µM in test [7]. The TGI in test [8], in test [9] and in test [10] was more than 100 µM in each case.

On to `O=C(Nc1ccc(O)c(NS(=O)(=O)c2ccc(F)cc2)c1)c1ccc(-c2ccccc2)cc1`, for which the GI50 in test [1] is 3.68 µM; in [2], 5.42 µM; in test [3] it was 9.79 µM; in test [4], 5.67 µM; in test [5], 9.07 µM; in test [6], 3.85 µM. Besides, the GI50 in test [7] was 5.12 µM; in test [8] it was 6.49 µM; in test [9], 6.3 µM; in test [10], 4.72 µM. Further, the TGI in [1] worked out at 14.6 µM; in test [2], 31.8 µM; in test [3], 21.7 µM; in test [4], 20.7 µM; in test [5], 26.1 µM; in test [6], 15.9 µM. Also, the TGI in test [7] came out at 20.7 µM; in [8], 33.2 µM; in test [9], 25.7 µM; in test [10], 22.1 µM.

In the case of `O=C(Nc1ccc(Cl)cc1F)c1cc(Cl)ccc1O`, the GI50 in test [1] was 0.361 µM; in test [2], 0.341 µM; in test [3], 0.345 µM; in test [4] it was 0.364 µM; in test [5] it was 0.466 µM; in test [6], 0.44 µM. Besides, the GI50 in test [7] is 0.431 µM; in test [8], 0.52 µM; in test [9] it was 0.532 µM; in test [10], 0.412 µM. The TGI was more than 59.2 µM in test [1]; 3.65 µM in test [2]; 3.95 µM in [3]; 2.38 µM in test [4]; more than 100 µM in test [5]; 2.24 µM in test [7]. For the same compound, the TGI in test [8] was more than 27.6 µM; in test [9], more than 88 µM; in test [10], more than 20.5 µM.

Take `Cc1nn(-c2ccccc2)c(C)c1/C=N/N1CCN(Cc2ccccc2)CC1`: the GI50 in [1] is 31.2 µM; in test [2], more than 100 µM; in test [3], more than 100 µM; in test [4] it was 50.3 µM; in [5] it was 67.5 µM; in test [6], 33.5 µM. Further, the GI50 in test [7] is 28 µM; in test [8], 38 µM; in [9], 52.4 µM. The TGI in test [1], in [2], in [3], in test [4], in test [5] and in [6] was more than 100 µM each time. The TGI in test [7], in test [8] and in test [9] was more than 100 µM throughout.

As for `CNC(=O)c1c(NC(=O)c2ccc(C(C)C)cc2)sc2c1CCC(=O)C2`, the GI50 in test [1] was 0.108 µM; in test [2], 0.357 µM; in test [3] it was 0.603 µM; in test [4] it was 0.461 µM; in test [5], 0.253 µM; in test [6] it was 0.58 µM. Further, the GI50 in test [7] is 0.0892 µM; in [8] it was 0.443 µM; in [9], 0.279 µM; in test [10], 0.423 µM. In addition, the TGI in [1] is more than 100 µM; in [2] it was 2.34 µM; in test [3], 2.38 µM; in [4] it was 2.24 µM; in [5], 1.42 µM; in test [6], 2.82 µM. In addition, the TGI in test [7] is 1.34 µM; in test [8], 2.41 µM; in test [9], 1.14 µM; in test [10], 1.57 µM.

On to `CC(=O)Nc1ccc(S(=O)(=O)c2ccc(NC(C)=O)cc2)cc1`, for which the GI50 in [1], in test [2], in [3], in [4], in test [6] and in [7] was more than 100 µM each time. For the same compound, the figures for the GI50 in test [9] and in test [10] were more than 100 µM and 61.8 µM, respectively. In addition, the TGI in test [1], in [2], in test [3], in test [4], in test [6] and in test [7] was more than 100 µM in each case. In addition, the TGI in test [9] and in test [10] was more than 100 µM each time.

Consider `CCc1cccc(CC)c1NC(=O)c1ccn2c1CCc1cnc(Nc3ccc(N4CCN(C)CC4)cc3OC)nc1-2`, for which the GI50 in test [2] was 2.24 µM; in [3], 2.13 µM; in test [4], 1.33 µM; in test [5], 1.84 µM; in test [6], 0.0814 µM; in test [8], 3.14 µM. Moreover, the GI50 was 2.31 µM in test [9] and 1.55 µM in test [10]. The TGI in test [2] was 11 µM; in test [3], 13.9 µM; in test [4], more than 100 µM; in test [5], 5.99 µM; in test [6], 10.7 µM; in [8] it was 17.8 µM. Also, the TGI in [9] came to 12.4 µM; in test [10], 4.22 µM.
